Experimental data: article PMC9305971, “Development of [^18F]AmBF3 Tetrazine for Radiolabeling of Peptides: Preclinical Evaluation and PET Imaging of [^18F]AmBF3-PEG7-Tyr^3-Octreotide in an AR42J Pancreatic Carcinoma Model” (Bioconjugate Chemistry, 2022)

Tests used:
[1] = test system: subcutaneous AR42J tumor; experiment: PET/CT imaging of [18F]15; format: in vivo, Rj:NMRI-Foxn1^nu/nu mice; settings: i.v., 0.2 nmol
Protocol: [^18F]6 in 10% ethanol–0.01 M PBS was administered intravenously to male Fox Chase SCID mice (CB.17 SCID) (11.0 ± 0.5 MBq, ∼11 nmol, ∼150 μL, n = 4) and healthy female C57BL/6JRj mice (11.3 ± 0.3 MBq, ∼11 nmol, ∼150 μL, n = 4) under 2% isoflurane anesthesia. The PET/CT image was acquired with Inveon PET/CT for 60 min followed by a 15 min static scan 4 h after injection of the tracer. The images of the dynamic scan were reconstructed to time frames 60 × 10, 10 × 60, 4 × 300, and 3 × 600 s. After the second PET imaging (t = 270 ± 1.9 min post injection, n = 4), the organs were harvested and the radioactivity in each tissue sample was measured with a γ-counter and reported as a percentage of injected dose per gram of tissue (% ID/g). [^18F]15 was formulated in 4% ethanol in 0.01 M PBS and administered intravenously (0.2 nmol, 0.80 ± 0.30 MBq; tracer: 150 μL; tracer + blocking dose: 200 μL) to AR42J tumor-bearing Rj:NMRI-Foxn1^nu/nu mice (n = 4) under 2% isoflurane anesthesia. PET/CT images were acquired with Molecubes PET (β-CUBE) coupled with a CT (X-CUBE) (MOLECUBES NV, Ghent, Belgium) with two mice being imaged at the same time under 2% isoflurane anesthesia. Images were reconstructed to time frames 30 × 10, 15 × 60, 4 × 300, and 5 × 600 s. Quantitative image analysis was done with Carimas software (v 2.10, Turku PET Centre, Turku, Finland). Spherical ROIs were hand-drawn based on anatomical CT data and PET signal for the desired organs. The results are presented as standardized uptake values (SUVs).
The standardized uptake values (SUVs) were determined from the PET image by drawing regions-of-interest (ROI) around selected organs (heart, liver, kidney, lung, muscle, urinary bladder) with Carimas software (version 2.10, Turku PET Centre, Turku, Finland ) and by measuring the ratio of radioactivity per unit volume of that ROI and normalized to the injected […]
dose. […]

[2] = Dosimetry from dynamic PET, extrapolated to adult humans (OLINDA/EXM); format: in vivo, Rj:NMRI-Foxn1^nu/nu mice; settings: extrapolated to adult human
Protocol: Dosimetry of [^18F]15 was calculated from the acquired PET/CT imaging data with Molecubes PET (β-CUBE) coupled with a CT (X-CUBE) (Ghent, Belgium). Regions of interest were drawn on source organs, namely, the heart, kidneys, liver, and lungs. Time–activity curves (TAC) were converted from mouse to human time −activity curves with the following equation [drawing 1] where morgan,h and WBh are the organ and whole-body weights for human, respectively. Mass morgan,m and WBm are the organ weight and the whole-body weight for mouse, respectively. Time–activity curves were normalized to 1 MBq injection, and the physical decay correction was removed. After this, the TAC’s were extrapolated into 3000 min, which corresponds in practice to infinity. Numbers of disintegrations in source organs are defined by integrating TAC from time 0 to 3000 min, and this value is input for OLINDA/EXM (version 2.1, Vanderbilt University, 2012) dosimetry software, where ICRP 89 reference adult male (73 kg) and ICRP 103 radiation weighting factors were used. Absorbed doses to each target organ are given in units mGy/MBq, and the effective dose is in units mSv/MBq.
Table S3. Dosimetry calculations.
Results after intravenous administration of [18F]15 from OLINDA/EXM (Version 2.1, Vanderbilt University, 2012), where ICRP 89 reference adult male (73 kg) and ICRP 103 radiation weighting factors were used. Absorbed doses to each target organ is given in units mGy/MBq and the effective dose in units mSv/MBq. The difference in radiation burden based on baseline (non-block) and blocked mice is negligible.
Target organ Baseline Avg. Baseline Std. Blocked Avg. Blocked Std. […]

C[C@@H](O)[C@@H]1NC(=O)[C@H](CCCCN)NC(=O)[C@@H](Cc2c[nH]c3ccccc23)NC(=O)[C@H](Cc2ccc(O)cc2)NC(=O)[C@@H](NC(=O)[C@@H](Cc2ccccc2)NC(=O)CCOCCOCCOCCOCCON=Cc2ccc(C(=O)NCCOCCOCCOCCNC(=O)OC3CCCc4cnnc(-c5ccc(CC(=O)NCC[N+](C)(C)C[B-](F)(F)F)cc5)c4CC3)cc2)CSSC[C@@H](C(=O)N[C@H](CO)[C@@H](C)O)NC1=O (stereo partly drawn) [[^18F]15]
time of peak radioactivity in tumor (TAC) [1]: 20 to 30 min | absorbed dose, adrenals ([2]; baseline): 0.0190 ± 0.0008 mGy/MBq | absorbed dose, brain ([2]; baseline): 0.0102 mGy/MBq | absorbed dose, esophagus ([2]; baseline): 0.0129 mGy/MBq | absorbed dose, eyes ([2]; baseline): 0.0102 mGy/MBq | absorbed dose, gallbladder wall ([2]; baseline): 0.0194 ± 0.0011 mGy/MBq | absorbed dose, heart wall ([2]; baseline): 0.0148 mGy/MBq | absorbed dose, kidneys ([2]; baseline): 0.0366 ± 0.0016 mGy/MBq | absorbed dose, left colon ([2]; baseline): 0.0143 mGy/MBq | absorbed dose, lungs ([2]; baseline): 0.0109 mGy/MBq | absorbed dose, osteogenic cells ([2]; baseline): 0.0120 mGy/MBq | absorbed dose, pancreas ([2]; baseline): 0.0156 ± 0.0002 mGy/MBq | absorbed dose, prostate ([2]; baseline): 0.0135 mGy/MBq | absorbed dose, rectum ([2]; baseline): 0.0136 mGy/MBq | absorbed dose, red marrow ([2]; baseline): 0.0113 mGy/MBq | absorbed dose, right colon ([2]; baseline): 0.0151 mGy/MBq | absorbed dose, salivary glands ([2]; baseline): 0.0118 mGy/MBq | absorbed dose, small intestine ([2]; baseline): 0.0144 mGy/MBq | absorbed dose, spleen ([2]; baseline): 0.0137 mGy/MBq | absorbed dose, stomach wall ([2]; baseline): 0.0141 mGy/MBq | absorbed dose, testes ([2]; baseline): 0.0112 mGy/MBq | absorbed dose, thymus ([2]; baseline): 0.0122 mGy/MBq | absorbed dose, thyroid ([2]; baseline): 0.0118 mGy/MBq | absorbed dose, total body ([2]; baseline): 0.0121 mGy/MBq | absorbed dose, urinary bladder wall ([2]; baseline): 0.0134 ± 0.0003 mGy/MBq | effective dose ([2]; baseline): 0.0112 mSv/MBq | absorbed dose, adrenals ([2]; baseline, listed as [18F]15): 0.0190 mGy/MBq | absorbed dose, gallbladder wall ([2]; baseline, listed as [18F]15): 0.0194 mGy/MBq | absorbed dose, kidneys ([2]; baseline, listed as [18F]15): 0.0366 mGy/MBq | absorbed dose, liver ([2]; baseline, listed as [18F]15): 0.0334 mGy/MBq | absorbed dose, pancreas ([2]; baseline, listed as [18F]15): 0.0156 mGy/MBq | absorbed dose, urinary bladder wall ([2]; baseline, listed as [18F]15): 0.0134 mGy/MBq | absorbed dose, adrenals ([2]; blocked): 0.0185 ± 0.0001 mGy/MBq | absorbed dose, brain ([2]; blocked): 0.0103 mGy/MBq | absorbed dose, esophagus ([2]; blocked): 0.0129 mGy/MBq | absorbed dose, eyes ([2]; blocked): 0.0103 mGy/MBq | absorbed dose, gallbladder wall ([2]; blocked): 0.0190 ± 0.0011 mGy/MBq | absorbed dose, heart wall ([2]; blocked): 0.0150 mGy/MBq | absorbed dose, kidneys ([2]; blocked): 0.0337 ± 0.0043 mGy/MBq | absorbed dose, left colon ([2]; blocked): 0.0144 mGy/MBq | absorbed dose, liver ([2]; blocked): 0.0313 ± 0.0040 mGy/MBq | absorbed dose, lungs ([2]; blocked): 0.0106 mGy/MBq | absorbed dose, osteogenic cells ([2]; blocked): 0.0121 mGy/MBq | absorbed dose, pancreas ([2]; blocked): 0.0154 ± 0.0001 mGy/MBq | absorbed dose, prostate ([2]; blocked): 0.0136 mGy/MBq | absorbed dose, rectum ([2]; blocked): 0.0137 mGy/MBq | absorbed dose, red marrow ([2]; blocked): 0.0114 mGy/MBq | absorbed dose, right colon ([2]; blocked): 0.0150 mGy/MBq | absorbed dose, salivary glands ([2]; blocked): 0.0119 mGy/MBq | absorbed dose, small intestine ([2]; blocked): 0.0145 mGy/MBq | absorbed dose, spleen ([2]; blocked): 0.0136 mGy/MBq | absorbed dose, stomach wall ([2]; blocked): 0.0141 mGy/MBq | absorbed dose, testes ([2]; blocked): 0.0113 mGy/MBq | absorbed dose, thymus ([2]; blocked): 0.0122 mGy/MBq | absorbed dose, thyroid ([2]; blocked): 0.0119 mGy/MBq | absorbed dose, total body ([2]; blocked): 0.0121 mGy/MBq | absorbed dose, urinary bladder wall ([2]; blocked): 0.0135 ± 0.0000 mGy/MBq | effective dose ([2]; blocked): 0.011 mSv/MBq | absorbed dose, adrenals ([2]; blocked, listed as [18F]15): 0.0185 mGy/MBq | absorbed dose, gallbladder wall ([2]; blocked, listed as [18F]15): 0.0190 mGy/MBq | absorbed dose, kidneys ([2]; blocked, listed as [18F]15): 0.0337 mGy/MBq | absorbed dose, liver ([2]; blocked, listed as [18F]15): 0.0313 mGy/MBq | absorbed dose, pancreas ([2]; blocked, listed as [18F]15): 0.0154 mGy/MBq | absorbed dose, urinary bladder wall ([2]; blocked, listed as [18F]15): 0.0135 mGy/MBq | absorbed dose, all organs [2]: below 0.04 mGy/MBq | absorbed dose, all other organs apart from the kidneys and liver [2]: ≤ 0.02 mGy/MBq
